Reference: patent publication US8394414B2, “Method for drug delivery to the pulmonary system” (MannKind Corporation, priority 1995, dated 2013)

Assay: in vivo
Details: sheep, sc
Procedure: Sheep (approximately 100 kg) were housed at SUNY Stony Brook Health Sciences Center. Animals were anesthetized with acepromazine/thiopental sodium. A suspense of diketopiperazine microparticle/sCT (10.04 mg/mL in 0.9% saline) was instilled in each lung of each sheep. A solution of sCT (10 mg/mL in 0.9% saline) was administered by subcutaneous injection to control animals. An intravenous catheter was placed in the cephalic vein of each anesthetized animal for blood sampling.
The following dosing solutions were prepared on the day of the experiment. The volume of the dose delivered was calculated based on the actual weight of the animal as described below.
Blood samples were drawn at the following time points: −5, 0 (predose), 1, 3, 5, 10, 15, 30, 45, 60, 90 minutes, 2, 4, and 6 hours. […]
Plasma sCT concentration was determined using radioimmunoassay (Research and Diagnostic Antibodies, Berkeley, Calif., catalog #K-1235).
The pharmacokinetics of sCT in sheep was determined after lung instillation of a formulation of sCT in diketopiperazine microparticle (2.47% by weight sCT) at a sCT dose of 100 μg/kg. […]
The truncated AUC (0 to 6 hours) was calculated for each animal using the trapezoidal rule. The bioavailability (F %) for each animal was calculated from the ration of the AUCs for the pulmonary and subcutaneous administrations.

CC(C)C[C@H](NC(=O)[C@H](CCCCN)NC(=O)CNC(=O)[C@H](CC(C)C)NC(=O)[C@@H](NC(=O)[C@@H]1CSSC[C@H](N)C(=O)N[C@@H](CO)C(=O)N[C@@H](CC(N)=O)C(=O)N[C@@H](CC(C)C)C(=O)N[C@@H](CO)C(=O)N[C@@H]([C@@H](C)O)C(=O)N1)C(C)C)C(=O)N[C@@H](CO)C(=O)N[C@@H](CCC(N)=O)C(=O)N[C@@H](CCC(=O)O)C(=O)N[C@@H](CC(C)C)C(=O)N[C@@H](Cc1c[nH]cn1)C(=O)N[C@@H](CCCCN)C(=O)N[C@@H](CC(C)C)C(=O)N[C@@H](CCC(N)=O)C(=O)N[C@H](C(=O)N[C@@H](Cc1ccc(O)cc1)C(=O)N1CCC[C@H]1C(=O)N[C@@H](CCCNC(=N)N)C(=O)N[C@H](C(=O)N[C@@H](CC(N)=O)C(=O)N[C@H](C(=O)NCC(=O)N[C@@H](CO)C(=O)NCC(=O)N[C@H](C(=O)N1CCC[C@H]1C(N)=O)[C@@H](C)O)[C@@H](C)O)[C@@H](C)O)[C@@H](C)O [sCT, salmon calcitonin]
Tmax: 2 h
AUC(0-t) (100 ug/kg): 38.8 ng·h/mL
